Measured values from ChEMBL document CHEMBL5154693, “N-Methylpropargylamine-Conjugated Hydroxamic Acids as Dual Inhibitors of Monoamine Oxidase A and Histone Deacetylase for Glioma Treatment” (J Med Chem, 2022).
Active and inactive are the calls of the source. No cut-off for these calls is given here.

Columns and labels:
[1] = Toxicity in mouse bearing intracranial tumor assessed as last day of survival at 25 mg/kg, ip treatment started at 7 dpi (Rvb=19 days); format: organism-based; conditions: in vivo, 456 h
Mus musculus [2] = assay: In vivo inhibition of MAO-A in C57BL6 mouse xenografted with mouse GL26 cells as decrease in MAO activity in brain at 50 mg/kg, ip by radiometric analysis; format: functional, organism-based
Histone deacetylase 8 = biological target: T1, Histone deacetylase 8 (Homo sapiens, UniProt Q9BY41); assay: Inhibition of human HDAC8 (379 to 382 residues) using RHKKAcKAc-AMC fluorogenic peptide as substrate by fluorescence assay
T1 sequence (Q9BY41 whole entry): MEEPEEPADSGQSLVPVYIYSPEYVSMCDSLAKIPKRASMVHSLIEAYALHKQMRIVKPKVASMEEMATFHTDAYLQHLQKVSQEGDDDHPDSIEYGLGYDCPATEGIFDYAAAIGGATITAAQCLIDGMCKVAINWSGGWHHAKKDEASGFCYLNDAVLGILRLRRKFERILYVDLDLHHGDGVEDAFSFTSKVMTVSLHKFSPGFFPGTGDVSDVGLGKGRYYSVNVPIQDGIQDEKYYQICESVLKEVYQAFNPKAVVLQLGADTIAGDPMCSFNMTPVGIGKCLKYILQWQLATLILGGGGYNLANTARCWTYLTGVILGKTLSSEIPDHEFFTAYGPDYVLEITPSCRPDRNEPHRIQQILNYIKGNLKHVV

GL26 = assay: Antiproliferative activity against mouse GL26 cells assessed as decrease in number of colonies at 0.625 to 1.25 uM incubated for 48 hrs by colony formation assay; format: functional, cell-based; conditions: dose 0.625-1.25 µM
[3] = biological target: T2, Protein deacetylase HDAC6 (Homo sapiens, UniProt Q9UBN7); assay: Inhibition of human HDAC6 (379 to 382 residues) using RHKKAc fluorogenic peptide as substrate by fluorescence assay
T2 sequence (Q9UBN7 whole entry): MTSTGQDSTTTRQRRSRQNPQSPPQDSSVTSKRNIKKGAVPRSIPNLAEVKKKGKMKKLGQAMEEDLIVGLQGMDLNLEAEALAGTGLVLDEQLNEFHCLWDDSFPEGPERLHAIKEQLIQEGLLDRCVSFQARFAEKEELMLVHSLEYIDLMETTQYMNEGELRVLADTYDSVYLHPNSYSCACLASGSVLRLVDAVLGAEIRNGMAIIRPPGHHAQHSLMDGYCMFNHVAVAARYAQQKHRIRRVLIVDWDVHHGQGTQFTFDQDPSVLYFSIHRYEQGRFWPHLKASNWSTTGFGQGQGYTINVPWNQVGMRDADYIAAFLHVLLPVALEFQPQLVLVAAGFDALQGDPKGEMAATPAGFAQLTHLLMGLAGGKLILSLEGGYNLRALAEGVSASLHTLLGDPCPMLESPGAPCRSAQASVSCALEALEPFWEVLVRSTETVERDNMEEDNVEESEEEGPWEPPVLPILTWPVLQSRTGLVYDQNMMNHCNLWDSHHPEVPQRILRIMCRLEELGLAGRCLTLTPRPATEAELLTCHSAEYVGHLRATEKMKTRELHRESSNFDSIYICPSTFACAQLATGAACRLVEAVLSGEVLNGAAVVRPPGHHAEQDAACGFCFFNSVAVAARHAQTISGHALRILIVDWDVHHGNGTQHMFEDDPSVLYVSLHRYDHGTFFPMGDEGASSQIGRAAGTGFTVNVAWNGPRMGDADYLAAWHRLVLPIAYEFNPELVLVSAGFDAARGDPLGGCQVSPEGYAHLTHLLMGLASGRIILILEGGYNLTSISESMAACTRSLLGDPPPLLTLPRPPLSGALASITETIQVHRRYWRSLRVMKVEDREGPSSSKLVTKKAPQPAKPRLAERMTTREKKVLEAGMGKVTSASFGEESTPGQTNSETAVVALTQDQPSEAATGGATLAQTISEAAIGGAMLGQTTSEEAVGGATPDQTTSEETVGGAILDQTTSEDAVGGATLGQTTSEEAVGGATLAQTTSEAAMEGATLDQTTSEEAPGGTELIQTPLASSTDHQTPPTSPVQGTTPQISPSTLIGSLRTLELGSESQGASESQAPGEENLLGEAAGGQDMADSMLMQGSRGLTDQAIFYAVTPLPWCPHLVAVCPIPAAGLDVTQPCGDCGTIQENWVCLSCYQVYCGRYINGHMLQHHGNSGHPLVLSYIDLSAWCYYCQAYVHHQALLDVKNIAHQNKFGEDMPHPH

Histone deacetylase 2 = Histone deacetylase 2 (Homo sapiens, UniProt Q92769); assay: Inhibition of human HDAC2 (379 to 382 residues) using RHKKAc-AMC fluorogenic peptide as substrate by fluorescence assay
Chain of Histone deacetylase 2 (Q92769 whole entry, the tested form may be a part): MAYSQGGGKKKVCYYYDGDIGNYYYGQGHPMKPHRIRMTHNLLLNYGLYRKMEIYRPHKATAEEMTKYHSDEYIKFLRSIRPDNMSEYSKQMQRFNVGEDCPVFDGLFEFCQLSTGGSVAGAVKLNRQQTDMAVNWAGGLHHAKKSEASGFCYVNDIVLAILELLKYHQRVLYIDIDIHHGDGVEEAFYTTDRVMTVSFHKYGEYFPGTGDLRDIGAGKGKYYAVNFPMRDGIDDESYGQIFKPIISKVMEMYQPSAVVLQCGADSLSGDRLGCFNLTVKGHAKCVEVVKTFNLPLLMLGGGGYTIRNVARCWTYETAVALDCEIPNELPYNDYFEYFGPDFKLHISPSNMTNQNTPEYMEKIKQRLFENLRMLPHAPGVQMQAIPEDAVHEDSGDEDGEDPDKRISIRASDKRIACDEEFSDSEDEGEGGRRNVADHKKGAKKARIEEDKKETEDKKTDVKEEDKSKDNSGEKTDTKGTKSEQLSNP

[4] = Toxicity in C57BL6 mouse xenografted with mouse GL26 cells as assessed as last day of survival at 50 mg/kg, ip for 14 days treatment started at 5 days post-infection (Rvb=14 days); format: organism-based; conditions: in vivo, 336 h, time 14 day
Histone deacetylase 1 = Histone deacetylase 1 (Homo sapiens, UniProt Q13547); assay: Inhibition of human HDAC1 (379 to 382 residues) using RHKKAc-AMC fluorogenic peptide as substrate by fluorescence assay
Chain of Histone deacetylase 1 (Q13547 whole entry, the tested form may be a part): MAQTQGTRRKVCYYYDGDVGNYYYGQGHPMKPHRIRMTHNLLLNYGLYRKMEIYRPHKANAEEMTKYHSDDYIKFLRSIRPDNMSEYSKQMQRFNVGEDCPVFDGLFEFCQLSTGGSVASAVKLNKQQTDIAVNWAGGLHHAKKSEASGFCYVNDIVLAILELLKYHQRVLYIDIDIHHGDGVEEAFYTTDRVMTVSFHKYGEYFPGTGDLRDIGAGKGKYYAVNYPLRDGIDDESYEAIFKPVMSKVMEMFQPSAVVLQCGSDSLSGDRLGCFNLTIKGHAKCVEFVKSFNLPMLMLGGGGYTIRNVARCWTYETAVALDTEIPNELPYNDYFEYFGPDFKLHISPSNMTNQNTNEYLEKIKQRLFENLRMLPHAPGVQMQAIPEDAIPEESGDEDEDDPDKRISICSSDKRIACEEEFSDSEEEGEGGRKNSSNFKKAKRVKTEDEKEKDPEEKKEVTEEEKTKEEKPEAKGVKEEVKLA

[5] = biological target: T3, Amine oxidase [flavin-containing] A (Homo sapiens, UniProt P21397); assay: Inhibition of MAO-A (unknown origin) expressed in mouse GL26 cells using 14C 5-hydroxytryptamine as substrate pre-incubated for 20 mins followed by substrate addition measured after 20 mins by liquid scintillation spectroscopy; format: cell-based
T3 sequence (P21397 whole entry): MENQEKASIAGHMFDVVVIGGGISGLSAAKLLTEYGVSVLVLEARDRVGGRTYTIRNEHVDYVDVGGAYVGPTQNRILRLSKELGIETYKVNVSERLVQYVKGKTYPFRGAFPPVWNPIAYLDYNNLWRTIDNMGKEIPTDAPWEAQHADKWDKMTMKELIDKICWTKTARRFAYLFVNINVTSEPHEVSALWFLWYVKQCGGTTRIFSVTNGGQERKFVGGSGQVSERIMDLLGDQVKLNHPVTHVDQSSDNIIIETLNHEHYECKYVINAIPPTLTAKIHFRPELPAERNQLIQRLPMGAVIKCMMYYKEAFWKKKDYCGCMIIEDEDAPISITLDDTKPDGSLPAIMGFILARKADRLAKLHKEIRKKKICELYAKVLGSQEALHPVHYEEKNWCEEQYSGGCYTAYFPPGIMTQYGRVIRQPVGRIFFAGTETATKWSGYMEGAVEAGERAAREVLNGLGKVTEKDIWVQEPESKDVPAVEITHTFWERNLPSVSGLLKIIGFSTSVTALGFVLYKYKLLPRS

[6] = Cytotoxicity against mouse GL26 cells assessed as inhibition of cell growth incubated for 48 hrs by MTT assay; format: functional, cell-based; conditions: GL26, 48 h
U-251 = assay: Cytotoxicity against human U251 cells assessed as inhibition of cell growth incubated for 48 hrs by MTT assay; format: functional, cell-based; conditions: DDE = dose-dependent effect
Mus musculus [7] = assay: In vivo inhibition of MAO-A in mouse xenografted with mouse GL26 assessed as decrease in MAO activity in brain at 25 mg/kg, ip administered for 10 days by bioluminescence assay; format: functional, organism-based; conditions: time 10.0 day

| Compound | Survival [1] [days] | Activity (Mus musculus [2]) | IC50 (Histone deacetylase 8) [µM] | Activity (GL26) | IC50 [3] [µM] | IC50 (Histone deacetylase 2) [µM] | Survival [4] [days] | IC50 (Histone deacetylase 1) [µM] | IC50 [5] [µM] | IC50 [6] [µM] | Activity (U-251) | Activity (Mus musculus [7]) | Activity (GL26; DDE = dose-dependent effect) |
| --- | --- | --- | --- | --- | --- | --- | --- | --- | --- | --- | --- | --- | --- |
| C#CCN(C)CCCOc1ccc(NC(=O)CCCCCCC(=O)NO)cc1Cl | 20 | Active | 0.33 | Active | 0.006 | 0.46 | 16 | 0.14 | 0.03 | 6.04 | Dde | Active | – |
| C#CCN(C)CCCOc1cc(NCc2ccc(/C=C/C(=O)NO)cc2)ccc1Cl | 22 | Active | 0.08 | – | 0.1 | 1.16 | 14 | 0.51 | 0.004 | 0.12 | Dde | Active | Dde |
